In patent US5948635A, “Totally Synthetic Affinity Reagents” (University of North Carolina at Chapel Hill, priority 1995, dated 1999):

Legend:
calmodulin = calmodulin (Homo sapiens, UniProt P0DP23); test: Competition with SEQ ID NO 176 peptide binding to calmodulin; conditions: FIG. 20, FIG. 23
Text: To examine where the SEQ ID NO 176 peptide bound the CaM molecule, we attempted to block binding with other peptides that have been previously shown to bind to the central, linker region of CaM (See Persechini and Kretsinger, 1988, J. Cardiovasc. Pharmacol 12:S1-12; Ikura et al., 1992, Cell Calcium 13:391-400; Chapman et al., 1992, Biochemistry 31:12819-25; Meador et al., 1992, Science 257: 1251-1255). It is this region of CaM that binds various proteins to regulate their activity in a Ca^2+ -dependent manner.
If the site responsible for binding of the CaM specific TSARs to CaM were only a five or six residue peptide, then one would have expected to isolate about 10-20 CaM binding TSARs from the TSAR-12 library. However, since only one particular CaM binding TSAR was repeatedly isolated, it appears that the site of interaction between the CaM specific TSAR and CaM is complex, i.e., the site requires more than simply 5 or 6 residues. To illustrate regions of the SEQ ID NO 176 that are involved in binding to CaM, the ability of 4 modified peptides to compete with SEQ ID NO 176 binding for calmodulin were examined. The modified peptides were (a) the N-terminal 13 residues […] SEQ ID NO 185; (b) the C-terminal 13 residues […] SEQ ID NO 186; (c) the SEQ ID NO 176 peptide where, at position 4, W was changed to A--[…] SEQ ID NO. 184; and (d) a peptide having the reverse sequence […] SEQ ID NO. […]

parvalbumin = test: CaM-12.1 phage binding to wells coated with parvalbumin; conditions: ELISA plate wells
Experimental: (§1) The binding properties of the CaM-12.1 TSAR were further examined in several ways. First, the ability of CaM-12.1 phage to bind other calcium-binding proteins was tested. […] Second, the ability of natural calmodulin binding peptides and proteins to compete for binding of the CaM-12.1 phage with CaM was tested. […] Third, the ability of a synthetic non-peptide CaM-antagonist, W7, (#681629; Calbiochem, San Diego, Calif.), was tested for its ability to compete for binding of CaM-12.1 to CaM. […] In summary: (1) CaM-12.1 binds CaM specifically, and not because it is a high-affinity Ca^2 +-binding protein; (2) CaM-12.1 binds CaM at a site partially overlapping or influenced, by the binding sites of CaM-dependentprotein kinase peptide, melittin and W7.

[1] = tested on: vitamin D calcium-binding protein; test: CaM-12.1 phage binding to wells coated with vitamin D calcium-binding protein; conditions: ELISA plate wells
Experimental: as §1

calcineurin = test: CaM-12.1 phage binding to calcineurin
Experimental: as §1

| Substance | competition with binding of peptide SEQ ID NO 176 to CaM (calmodulin) | binding to parvalbumin (parvalbumin) | binding to vitamin D calcium-binding protein [1] | binding to calcineurin (calcineurin) |
| --- | --- | --- | --- | --- |
| GAARAQTRLASWK [SEQ ID NO 186, C-terminal 13 residues] | none of the four peptides were able to compete |  |  |  |
| STVPRAIEDSLRGGAARAQTRLASWK [SEQ ID NO. 184] | none of the four peptides were able to compete |  |  |  |
| VPRWIEDSLRGGAARAQTRLASA [CaM-12.1] |  | failed to bind | failed to bind | did not bind |
